Measurements published in US20120108538A1, “SULFATED POLYSACCHARIDES HAVING ANTIPLASMODIAL ACTIVITY AND METHODS AND PRODUCTS FOR IDENTIFYING ANTIPLASMODIAL ACTIVITY” (priority 2009, published 2012).
“Also recorded” adds a separate entry of the source.

What was measured:
[1] = target: T1, lactoferrin (Homo sapiens, UniProt P02788); experiment: Heparin-BSA binding assay (positive control protein); details: data not shown
T1 construct: purchased
Procedure: Recombinant merozoite antigens were coated (1 μg/mL) onto 96 well plates (Nunc Maxisorb) in HT-PBS overnight at 4° C. Plates were washed and blocked with 1% casein, 1 hr, room temperature. Plates were incubated with heparin-BSA conjugate with soluble inhibitors and detected with anti-BSA (rabbit) (Sigma-Aldrich) antibodies and anti-rabbit -HRP. Detection was performed with 2,2′-azino-bis(3-ethylbenzthiazoline-6-sulphonic acid) (Sigma-Aldrich) monitored for colour change and measured for absorbance at 405 nm. All incubations were performed in HT-PBS 0.1% casein 0:05% Tween20, 1 hr at room temperature. Plates were washed 3 times HT-PBS 0.05% Tween20 between incubations.

[2] = test system: P. falciparum blood stage growth; experiment: Growth inhibition assay (GIA), flow cytometry; format: cell-based, Plasmodium falciparum; details: for inhibition of different P. falciparum lines: 3D7, W2mef, D10, E8B, XIE, HCS3, SA-dependent and SA-independent invasion
Procedure: P. falciparum was cultured as described. Parasites were maintained in culture media of RPMI-HEPES supplemented with 5% (vol/vol) heat inactivated (56° C. 1 hr) human serum (Australian Red Cross Blood Bank),. […] (Gibco), 10mM L-glutamine (Gibco) and 25 mM […]. Parasites were grown at 37° C., 2% hematocrit, O+ human erythrocytes (Australian Red Cross Blood Bank), 1% O2 4% CO2 95% N2 atmosphere. Sorbitol (Sigma-Aldrich) was used to synchronize cultures. 32. Persson K E, Lee C T, Marsh K, Beeson J G (2006) Development and optimization of high-throughput methods to measure Plasmodium falciparum-specific growth inhibitory antibodies. J Clin Microbiol 44: 1665-1673.33. Lambros C, Vanderberg J P (1979) Synchronization of Plasmodium falciparum erythrocytic stages in culture. J Parasitol 65: 418-420.
Heparin and K5 polysaccharides (Table 1) were tested for inhibitory activity against P. falciparum parasites using high throughput growth inhibitory assays (GlAs). Duplicate 25 μl suspensions of synchronized parasites, 2% parasitemia (32 hr trophozoite), 1% hematocrit with normal or enzymatically treated erythrocyctes, were incubated with inhibitory compounds in 96 well sterile U-bottom plates (Falcon). For humidification, outside wells were filled with sterile human tonicity phosphate-buffered saline (HT-PBS). Plates were incubated as for parasite culture for 44 hrs and analyzed. Parasites were stained with 10 μg/mL ethidium bromide (EtBr) (BioRad), HT-PBS, 1 hr in darkness. Cells were washed and re-suspended in 200 μL HT-PBS. Parasitemia was measured using FACSCalibur flow-cytometry. Data were analyzed using FlowJo (Tree Star), gating on intact erythrocytes and determining parasitemia by EtBr staining. Inhibitory effects of compounds were expressed as percent growth of uninhibited controls (HT-PBS) for each experiment.
Erythrocytes were treated with neuraminidase, chymotrypsin and trypsin as described previously. Erythrocytes were washed with RPMI-HEPES and incubated with neuraminidase ([…], 15 minutes), chymotrypsin (1 mg/mL, 45 minutes) or trypsin (100 μg/mL, […]) at 37° C. Neuraminidase treated bells were washed three times with RPMI-HEPES and chymotrypsin and trypsin treated cells were washed once with culture media and twice with RPMI-HEPES and then used in GIAs. 34. Persson K E, McCallum F J, Reiling L, Lister N A, Stubbs J, et al. (2008) Variation in use of erythrocyte invasion pathways by Plasmodium falciparum mediates evasion of human inhibitory antibodies. J Clin Invest 118: 342-351.

[3] = test system: P. falciparum merozoite invasion of erythrocytes; experiment: Live video microscopy of merozoite invasion; format: cell-based, Plasmodium falciparum; details: 100 μg/mL; 4529 seconds filming, 15 rupture events
Procedure: Parasites cultures of 5-10% late stage schizonts were filmed with video microscopy in normal culture media, 37° C. 6% CO2 with humidification with or without 100 μg/mL of inhibitory compounds added to cultures as described previously. 35. Gilson P R, Crabb B S (2009) Morphology and kinetics of the three distinct phases of red blood cell invasion by Plasmodium falciparum merozoites. Int J Parasitol 39: 91-96.
A mechanism of action of heparin was next determined using live time-lapse microscopy. In control parasite cultures, schizont rupture and step-wise invasion of erythrocytes by merozoites was readily observed (FIG. 7C). During merozoite invasion of erythrocytes, Applicant observed initial contact with erythrocyte surface resulting in brief deformation of erythrocytes, merozoite reorientation, mechanical invasion resulting in erythrocyte deformation, and erythrocyte re-shaping upon complete invasion, as reported previously. […] Initial contact of merozoites with the erythrocyte surface was also observed; however, contact between erythrocytes and merozoites was not sustained, and merozoites dissociated after various lengths of time (FIG. 7D). No successful invasion events were observed; additionally, reorientation of merozoites and deformation of erythrocytes were not clearly seen, although the observation of merozoite reorientation is limited due to microscope resolution. […]

[4] = test system: P. falciparum 3D7 parasites; experiment: Time course of schizont rupture and merozoite invasion/ring formation; format: cell-based, Plasmodium falciparum; details: 100 μg/mL
Procedure: 50 μL of synchronous 3D7 parasites at high parasitemia (5-10%), at approximately 32 hrs trophozoites were incubated as for GIAs with or without inhibitors (100 μg/mL). From approximately 44-48 hr schizonts parasite samples were collected, every 3 hrs for 15 hrs. Cells were stained and analysed as for GIAs to evaluate parasitemia and parasite stage.
To define the mechanism of action of heparin and heparin-like molecules Applicant performed time-course studies of schizont rupture, merozoite invasion and intra-erythrocytic development of P. falciparum in the presence of heparin. Parasite stages were evaluated using flow-cytometry, differentiating between late stage trophozoites and schizont versus ring stage parasites with ethidium bromide staining. […] No inhibition of infra-erythrocytic growth was observed (data not shown).

T1 sequence (P02788 20-710, species assumed): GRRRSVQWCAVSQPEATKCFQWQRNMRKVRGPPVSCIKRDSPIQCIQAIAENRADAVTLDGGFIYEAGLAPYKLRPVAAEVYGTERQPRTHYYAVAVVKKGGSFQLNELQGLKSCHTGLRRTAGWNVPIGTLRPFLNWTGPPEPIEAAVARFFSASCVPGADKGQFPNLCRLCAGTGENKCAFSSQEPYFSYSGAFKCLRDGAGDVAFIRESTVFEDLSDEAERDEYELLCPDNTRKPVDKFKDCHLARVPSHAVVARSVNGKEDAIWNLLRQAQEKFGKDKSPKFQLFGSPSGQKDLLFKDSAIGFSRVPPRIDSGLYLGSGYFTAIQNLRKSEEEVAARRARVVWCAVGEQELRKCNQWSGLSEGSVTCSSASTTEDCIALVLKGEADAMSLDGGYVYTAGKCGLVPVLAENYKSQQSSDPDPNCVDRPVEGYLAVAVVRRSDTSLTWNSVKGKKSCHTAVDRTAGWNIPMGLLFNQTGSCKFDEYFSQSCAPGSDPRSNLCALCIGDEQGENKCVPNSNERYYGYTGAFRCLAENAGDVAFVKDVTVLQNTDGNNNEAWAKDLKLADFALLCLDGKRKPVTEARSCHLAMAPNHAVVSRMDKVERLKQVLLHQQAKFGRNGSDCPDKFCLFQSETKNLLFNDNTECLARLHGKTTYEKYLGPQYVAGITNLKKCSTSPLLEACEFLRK

Substance: Heparin
- inhibition of lactoferrin binding to heparin-BSA [1]: inhibited
- inhibition of different P. falciparum lines [2]: inhibited to similar levels
- inhibition of different P. falciparum lines ([2]; listed as Heparin): inhibited all parasite lines tested; also recorded: inhibited at equal levels
- inhibition of invasion into enzyme-treated versus control erythrocytes ([2]; 3D7, neuraminidase, trypsin, chymotrypsin treated erythrocytes): equivalent
- IC50, inhibition of P. falciparum blood stage growth in GIA ([2]; 3D7 parasite line, one cycle of parasite growth): 19 µg/mL
- selection of heparin-resistant parasites ([2]; 3D7 selected once or twice with heparin 100 μg/mL for 48 hrs): no evidence that Applicant were able to select for increased resistance
- IC50 of heparin in combination with AMA1-binding peptide ([2]; AMA1-binding peptide at 6.25 μg/mL): ~3 µg/mL
- parasite growth over one cycle of replication ([2]; heparin 100 μg/mL): a very low level of parasite growth
- combination with pyrimethamine ([2]; heparin with increasing pyrimethamine): acted in an additive manner
- successful invasion events observed [3]: no successful invasion observed
- rates of merozoite invasion and ring formation [4]: very low
- schizont rupture compared to control [4]: some delay, but not complete inhibition
- inhibition of intra-erythrocytic growth ([4]; data not shown): No inhibition
